Test results published in PMC4170002 (Journal of immunology (Baltimore, Md. : 1950), 2014).
Values joined by “and” are separate entries in the source; they are usually repeats but may differ in a detail not shown here. Identical values can stand only once. “Also recorded” adds a separate entry of the source.

Key:
IFN-α signaling = experiment: HEK-BLUE IFN-α/β SEAP reporter assay; type: cell-based; conditions: HEK-BLUE IFN-α/β cells, 200 U IFN-α, 24 hours
JAK1 [1] = target: T1, JAK1 (Homo sapiens, UniProt P23458); experiment: IL-6-induced pSTAT3 in primary CD4+ cells; type: cell-based; conditions: read-out: IC50 JAK1, pSTAT (primary cells), IL-6, pSTAT3
IL-22 signaling [2] = experiment: IL-22-induced pSTAT3 in HT-29 cells; type: cell-based, human
TYK2 [3] = target: T2, TYK2 (Homo sapiens, UniProt P29597); experiment: TR-FRET STAT3 phosphorylation assay, TYK2; conditions: read-out: IC50 TYK2, 10 μM ATP, GFP-STAT3
IL-22 signaling [4] = experiment: IL-22-induced Serum Amyloid A; type: in vivo, mouse; conditions: 50 mg/kg p.o., C57BL/6 mice, 10 μg IL-22, 6 hours, vs vehicle
[5] = tested on: imiquimod-induced dermatitis; experiment: Imiquimod-induced psoriasis-like dermatitis; type: in vivo
TYK2 [6] = target: T2, TYK2; experiment: IL-12-induced pSTAT4 in primary CD4+ cells; type: cell-based; conditions: read-out: IC50 TYK2, pSTAT (primary cells), IL-12, pSTAT4
JAK3 [7] = target: T3, JAK3 (Homo sapiens, UniProt P52333); experiment: IL-2-induced pSTAT5 in PBMCs; type: cell-based; conditions: read-out: IC50 JAK3, pSTAT (primary cells), IL-2, pSTAT5
T3 sequence (P52333 1-1124): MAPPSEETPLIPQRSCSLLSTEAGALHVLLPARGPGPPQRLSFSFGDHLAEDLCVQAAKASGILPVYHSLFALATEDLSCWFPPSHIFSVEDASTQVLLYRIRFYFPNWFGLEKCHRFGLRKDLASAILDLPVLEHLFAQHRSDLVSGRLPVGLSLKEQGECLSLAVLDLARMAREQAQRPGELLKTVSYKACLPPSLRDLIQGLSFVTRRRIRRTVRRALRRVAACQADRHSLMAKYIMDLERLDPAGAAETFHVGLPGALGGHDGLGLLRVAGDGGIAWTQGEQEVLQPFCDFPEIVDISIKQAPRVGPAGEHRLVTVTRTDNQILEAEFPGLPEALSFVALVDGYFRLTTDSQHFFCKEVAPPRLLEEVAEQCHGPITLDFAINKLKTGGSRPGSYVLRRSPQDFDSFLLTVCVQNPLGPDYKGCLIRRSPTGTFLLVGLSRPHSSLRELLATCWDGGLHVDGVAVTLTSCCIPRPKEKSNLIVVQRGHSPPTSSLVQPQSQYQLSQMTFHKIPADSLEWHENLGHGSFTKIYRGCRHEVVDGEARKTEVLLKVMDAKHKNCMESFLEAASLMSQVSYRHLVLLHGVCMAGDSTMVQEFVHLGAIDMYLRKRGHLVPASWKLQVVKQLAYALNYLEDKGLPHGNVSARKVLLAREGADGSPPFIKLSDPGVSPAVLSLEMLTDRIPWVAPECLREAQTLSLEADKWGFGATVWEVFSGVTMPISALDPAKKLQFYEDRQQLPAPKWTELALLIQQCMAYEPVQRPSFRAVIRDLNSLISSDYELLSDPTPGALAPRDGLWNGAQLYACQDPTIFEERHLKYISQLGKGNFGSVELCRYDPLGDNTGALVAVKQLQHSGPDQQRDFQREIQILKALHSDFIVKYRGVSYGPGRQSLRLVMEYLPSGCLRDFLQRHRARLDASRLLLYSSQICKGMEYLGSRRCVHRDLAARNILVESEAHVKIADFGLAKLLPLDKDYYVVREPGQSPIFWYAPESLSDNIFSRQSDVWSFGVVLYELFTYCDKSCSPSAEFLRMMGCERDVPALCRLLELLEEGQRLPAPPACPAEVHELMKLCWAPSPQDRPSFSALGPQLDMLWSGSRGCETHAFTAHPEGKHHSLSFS

JAK1 [8] = target: T1, JAK1; experiment: TR-FRET STAT3 phosphorylation assay, JAK1; conditions: read-out: IC50 JAK1, 10 μM ATP, GFP-STAT3
[9] = In vivo pharmacokinetics in CD-1 mice; parameters: species or system mouse; conditions: for Cmax or Co: CD-1 mice
JAK3 [10] = target: T3, JAK3; experiment: 33P-ATP kinase assay, JAK3; type: biochemical; conditions: read-out: IC50 JAK3; 33P-ATP assay, 10 μM ATP
JAK1 [11] = target: T1, JAK1; experiment: IL-6-induced pSTAT3 in TF-1 cells; type: cell-based; conditions: read-out: IC50 JAK1, pSTAT (cell lines), IL-6, pSTAT3
CD4+ T cells = experiment: CD4+ T cell proliferation; type: cell-based, mouse; conditions: anti-CD28/anti-TCR, 4 days
[12] = Mouse liver microsome stability; type: in vitro ADME; conditions: 0.5 μM
JAK1 [13] = target: T1, JAK1; experiment: 33P-ATP kinase assay, JAK1; type: biochemical; conditions: read-out: IC50 JAK1; 33P-ATP assay, 10 μM ATP
JAK3 [14] = target: T3, JAK3; experiment: TR-FRET STAT3 phosphorylation assay, JAK3; conditions: read-out: IC50 JAK3, 10 μM ATP, GFP-STAT3
Splenic CD4+ cells = experiment: T helper cell development; type: cell-based, mouse; conditions: 1 μM, 4 days; for IFN-γ production in Th1 cells: Th1 conditions; for IL-4 in Th2 cultures: Th2 conditions; for Foxp3+ cells under Th17-skewing conditions / percent of IL-17+ cells: Th17-skewing conditions; for development of iTregs: iTreg conditions
IL-12 signaling in vivo = experiment: IL-12/IL-18-induced serum IFN-γ in vivo; parameters: species or system mouse; conditions: 60 mg/kg, 30 minutes prior to IL-12/IL-18, vs vehicle
TYK2 [15] = target: T2, TYK2; experiment: 33P-ATP kinase assay, TYK2; type: biochemical; conditions: read-out: IC50 TYK2; 33P-ATP assay, 10 μM ATP
non-JAK kinases = experiment: Kinome analysis; type: biochemical; conditions: 100 nM
Caco-2 permeability = type: in vitro ADME; conditions: 5 μM, pH 7.4
IL-12 signaling = experiment: IL-12-induced IFN-γ production in PBMCs; type: cell-based; conditions: human PBMCs, 10 ng/mL IL-12, 24 hours
TYK2 [16] = target: T2, TYK2; experiment: IL-12-induced pSTAT4 in NK-92 cells; type: cell-based; conditions: read-out: IC50 TYK2, pSTAT (cell lines), IL-12, pSTAT4
[17] = 50 mg/kg p.o. twice daily, back skin
[18] = 50 mg/kg, qPCR, vs wild type and TYK2 mutant mice

T2 sequence (P29597 whole entry): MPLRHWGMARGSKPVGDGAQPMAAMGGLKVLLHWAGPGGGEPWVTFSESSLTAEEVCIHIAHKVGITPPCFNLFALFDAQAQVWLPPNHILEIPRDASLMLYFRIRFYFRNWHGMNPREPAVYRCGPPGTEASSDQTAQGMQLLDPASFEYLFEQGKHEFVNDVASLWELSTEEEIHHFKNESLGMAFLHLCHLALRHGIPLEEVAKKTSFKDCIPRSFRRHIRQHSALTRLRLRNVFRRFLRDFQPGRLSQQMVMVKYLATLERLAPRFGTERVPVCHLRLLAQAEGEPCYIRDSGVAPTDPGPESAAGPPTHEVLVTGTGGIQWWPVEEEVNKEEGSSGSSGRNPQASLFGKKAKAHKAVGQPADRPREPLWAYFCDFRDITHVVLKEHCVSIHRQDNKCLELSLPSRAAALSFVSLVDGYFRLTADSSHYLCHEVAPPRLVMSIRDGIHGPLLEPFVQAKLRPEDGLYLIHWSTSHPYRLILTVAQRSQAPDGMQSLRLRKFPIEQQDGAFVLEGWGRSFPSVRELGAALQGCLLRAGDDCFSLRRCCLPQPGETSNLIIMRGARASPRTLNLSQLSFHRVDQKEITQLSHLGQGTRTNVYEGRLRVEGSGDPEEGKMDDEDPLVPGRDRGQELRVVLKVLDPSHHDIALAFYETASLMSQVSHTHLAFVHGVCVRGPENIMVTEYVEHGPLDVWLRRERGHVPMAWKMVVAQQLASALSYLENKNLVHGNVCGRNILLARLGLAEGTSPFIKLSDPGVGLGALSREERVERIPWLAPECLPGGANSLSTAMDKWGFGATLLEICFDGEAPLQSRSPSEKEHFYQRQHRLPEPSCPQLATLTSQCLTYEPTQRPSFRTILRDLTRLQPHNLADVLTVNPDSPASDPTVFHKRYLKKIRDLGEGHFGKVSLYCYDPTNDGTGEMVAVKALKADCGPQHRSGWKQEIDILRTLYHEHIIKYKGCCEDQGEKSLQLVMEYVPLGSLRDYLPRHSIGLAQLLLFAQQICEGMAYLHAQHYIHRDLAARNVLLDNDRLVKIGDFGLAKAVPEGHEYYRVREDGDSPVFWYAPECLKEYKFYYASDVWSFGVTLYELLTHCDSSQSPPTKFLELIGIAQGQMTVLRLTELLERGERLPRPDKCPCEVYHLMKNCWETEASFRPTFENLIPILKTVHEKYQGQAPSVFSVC
T1 sequence (P23458 whole entry): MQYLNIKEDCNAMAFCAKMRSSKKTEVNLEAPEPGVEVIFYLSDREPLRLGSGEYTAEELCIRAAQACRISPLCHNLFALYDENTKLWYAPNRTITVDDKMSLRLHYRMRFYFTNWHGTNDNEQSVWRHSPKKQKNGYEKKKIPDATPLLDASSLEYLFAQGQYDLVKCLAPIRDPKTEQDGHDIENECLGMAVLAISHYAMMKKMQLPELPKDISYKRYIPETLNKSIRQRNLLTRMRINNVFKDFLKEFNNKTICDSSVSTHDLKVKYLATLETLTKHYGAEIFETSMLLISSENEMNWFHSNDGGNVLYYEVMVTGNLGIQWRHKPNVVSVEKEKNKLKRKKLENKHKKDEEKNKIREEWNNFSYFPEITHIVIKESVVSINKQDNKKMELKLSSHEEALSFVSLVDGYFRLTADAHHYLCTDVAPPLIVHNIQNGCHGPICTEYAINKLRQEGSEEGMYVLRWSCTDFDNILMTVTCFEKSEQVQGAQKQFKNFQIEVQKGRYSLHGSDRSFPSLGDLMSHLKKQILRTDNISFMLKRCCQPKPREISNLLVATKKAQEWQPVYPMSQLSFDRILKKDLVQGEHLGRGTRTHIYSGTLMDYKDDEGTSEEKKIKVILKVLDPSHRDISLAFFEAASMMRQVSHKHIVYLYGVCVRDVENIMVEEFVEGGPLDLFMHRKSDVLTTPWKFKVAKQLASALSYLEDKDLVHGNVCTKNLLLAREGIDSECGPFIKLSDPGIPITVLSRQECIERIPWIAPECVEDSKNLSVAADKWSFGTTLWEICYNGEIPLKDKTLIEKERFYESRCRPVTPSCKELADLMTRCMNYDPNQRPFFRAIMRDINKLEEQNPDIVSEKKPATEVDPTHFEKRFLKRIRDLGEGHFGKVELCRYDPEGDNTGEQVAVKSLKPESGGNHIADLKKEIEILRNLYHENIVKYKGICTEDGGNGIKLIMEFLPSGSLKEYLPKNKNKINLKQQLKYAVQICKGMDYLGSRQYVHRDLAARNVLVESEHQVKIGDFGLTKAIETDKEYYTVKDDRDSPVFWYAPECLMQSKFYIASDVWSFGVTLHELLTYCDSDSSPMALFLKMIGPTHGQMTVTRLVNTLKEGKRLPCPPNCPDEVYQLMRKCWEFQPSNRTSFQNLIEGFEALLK

NC(=O)c1nc(-c2c(F)cccc2Cl)oc1Nc1ccc(C(=O)N2CCOCC2)cc1 [SAR-20347]
inhibition of SEAP production (IFN-α signaling): dose-dependently inhibited the production of SEAP | IC50 (JAK1 [1]): 423 nM | inhibition of STAT3 phosphorylation (IL-22 signaling [2]; 10 μM): 94% | IC50 (IL-22 signaling [2]; read-out: IC50 IL-22-induced pSTAT3, 10 ng/mL IL-22, 15 minutes): 148 nM | IC50 (TYK2 [3]): 13 ± 3 nM | decrease of SAA levels (IL-22 signaling [4]): 45% | gross toxicity ([5]; 50 mg/kg p.o. twice daily): no gross toxicity | Ki67 staining [5, 17]: significantly reduced | histological score [5, 17]: significantly reduced | keratinocyte cell numbers [5, 17]: significantly reduced | scaling and redness (clinical score) ([5]; 50 mg/kg p.o. twice daily, vs TYK2 mutant or vehicle-treated wild type mice): markedly reduced scaling and redness | IL-2 expression levels in the skin ([5]; 50 mg/kg, qPCR): did not affect | IL-10 expression levels in the skin ([5]; 50 mg/kg, qPCR): did not affect | S100A8 gene expression in the skin ([5]; 50 mg/kg, qPCR): significantly decreased | S100A9 gene expression in the skin ([5]; 50 mg/kg, qPCR): significantly decreased | defensin β1 gene expression in the skin ([5]; 50 mg/kg, qPCR): significantly decreased | IL-6 mRNA expression in the skin [5, 18]: significantly reduced expression | IL-17 mRNA expression in the skin [5, 18]: significantly reduced expression | IL-20 mRNA expression in the skin [5, 18]: significantly reduced expression | IL-22 mRNA expression in the skin [5, 18]: significantly reduced expression | IL-23 mRNA expression in the skin [5, 18]: significantly reduced expression | TNF mRNA expression in the skin [5, 18]: significantly reduced expression | IL-17 production (average signal intensity) ([5]; 50 mg/kg, skin IHC): significantly reduced IL-17 production | Vγ3 expression (average signal intensity) ([5]; 50 mg/kg, skin IHC): significantly lower | number of CD4+ cells in skin ([5]; 50 mg/kg, skin IHC): not affected | IC50 (TYK2 [6]): 107 nM | IC50 (JAK3 [7]): 1610 nM | IC50 (JAK1 [8]): 59 ± 43 nM | AUC0-8h ([9]; 1 mg/kg (i.v.)): 305 ng/h/mL | Cl ([9]; 1 mg/kg (i.v.)): 52 mL/min/kg and 52.1 mL/min/kg | T1/2 ([9]; 1 mg/kg (i.v.)): 162 min | Cmax or Co ([9]; 1 mg/kg (i.v.)): 433 ng/mL | AUC0-8h ([9]; 10 mg/kg (p.o.)): 2131 ng/h/mL | F ([9]; 10 mg/kg (p.o.)): 69.8% | T1/2 ([9]; 10 mg/kg (p.o.)): 144 min | Tmax ([9]; 10 mg/kg (p.o.)): 24 min | Cmax or Co ([9]; 10 mg/kg (p.o.)): 1343 ng/mL | AUC0-8h ([9]; 50 mg/kg (p.o.)): 18740 ng/h/mL | T1/2 ([9]; 50 mg/kg (p.o.)): 168 min | Tmax ([9]; 50 mg/kg (p.o.)): 30 min | Cmax or Co ([9]; 50 mg/kg (p.o.)): 6273 ng/mL | maximum serum concentration (Tmax) ([9]; mice): 30 min | IC50 (JAK3 [10]): 41 ± 11 nM | IC50 (JAK1 [11]): 345 nM | CD4+ T cell proliferation (CD4+ T cells): inhibited proliferation to a comparable extent | doses significantly decreasing proliferation compared to 0 μM (DMSO) (CD4+ T cells; two-way ANOVA): ≥ 0.315 µM | clearance rate in mouse liver microsomes [12]: 26 µL/min/mg | half-life in mouse liver microsomes [12]: 52.7 min | IC50 (JAK1 [13]): 23 ± 19 nM | IC50 (JAK3 [14]): 1440 ± 630 nM | IFN-γ production in Th1 cells (Splenic CD4+ cells): potently blocked IFN-γ production | IL-4 in Th2 cultures (Splenic CD4+ cells): capable of reducing IL-4 | Foxp3+ cells under Th17-skewing conditions (Splenic CD4+ cells): dramatic increase in Foxp3+ cells | percent of IL-17+ cells (Splenic CD4+ cells): reduces the percent of IL-17+cells | development of iTregs (Splenic CD4+ cells): did not alter the development of iTregs | inhibition of production of IFN-γ in the serum (IL-12 signaling in vivo): 91% | IC50 (TYK2 [15]): 0.6 ± 0.1 nM | inhibitory activity towards non-JAK kinases (non-JAK kinases): comparable to the previously established values for tofacitinib and ruxolitinib | Caco-2 AB: BA (Caco-2 permeability): 1.3 | Caco-2 permeability (Caco-2 permeability): good permeability | inhibition of IL-12 induced IFN-γ production (IL-12 signaling): dose-dependent inhibition of IFN-γ production; also recorded: complete inhibition | IC50 (TYK2 [16]): 126 nM

C[C@@H]1CCN(C(=O)CC#N)C[C@@H]1N(C)c1ncnc2[nH]ccc12 [Tofacitinib, reference compound]
IFN-γ production in Th1 cells (Splenic CD4+ cells): potently blocked IFN-γ production | IL-4 in Th2 cultures (Splenic CD4+ cells): capable of reducing IL-4 | Foxp3+ cells under Th17-skewing conditions (Splenic CD4+ cells): no effect on Th17 skewing or change in the number of Foxp3+ cells | percent of IL-17+ cells (Splenic CD4+ cells): no effect on Th17 skewing | development of iTregs (Splenic CD4+ cells): significantly reduced iTreg development
